Measured values published in ChEMBL document CHEMBL4308841, “Synthesis, in vitro antiproliferative activity, and kinase inhibitory effects of pyrazole-containing diarylureas and diarylamides” (Eur J Med Chem, 2018).

Columns and labels:
Assay type in all cases: functional
CCRF-CEM = assay: Growth inhibition of human CCRF-CEM cells assessed as cell growth at 10 uM incubated for 48 hrs by sulforhodamine B assay relative to control; settings: read-out: Activity
HL-60(TB) = assay: Growth inhibition of human HL-60(TB) cells assessed as cell growth at 10 uM incubated for 48 hrs by sulforhodamine B assay relative to control; settings: HL-60, 48 h, read-out: Activity
K562 = assay: Growth inhibition of human K562 cells assessed as cell growth at 10 uM incubated for 48 hrs by sulforhodamine B assay relative to control; settings: K562, 48 h, read-out: Activity
MOLT-4 = assay: Growth inhibition of human MOLT4 cells assessed as cell growth at 10 uM incubated for 48 hrs by sulforhodamine B assay relative to control; settings: MOLT-4, 48 h, read-out: Activity
RPMI-8226 = assay: Growth inhibition of human RPMI8226 cells assessed as cell growth at 10 uM incubated for 48 hrs by sulforhodamine B assay relative to control; settings: RPMI-8226, 48 h, read-out: Activity
SR = assay: Growth inhibition of human SR cells assessed as cell growth at 10 uM incubated for 48 hrs by sulforhodamine B assay relative to control; settings: read-out: Activity
A549 = assay: Growth inhibition of human A549/ATCC cells assessed as cell growth at 10 uM incubated for 48 hrs by sulforhodamine B assay relative to control; settings: A549, 48 h, read-out: Activity
HOP-62 = assay: Growth inhibition of human HOP62 cells assessed as cell growth at 10 uM incubated for 48 hrs by sulforhodamine B assay relative to control; settings: HOP-62, 48 h, read-out: Activity
NCI-H226 = assay: Growth inhibition of human NCI-H226 cells assessed as cell growth at 10 uM incubated for 48 hrs by sulforhodamine B assay relative to control; settings: NCI-H226, 48 h, read-out: Activity
NCI-H322M = assay: Growth inhibition of human NCI-H322M cells assessed as cell growth at 10 uM incubated for 48 hrs by sulforhodamine B assay relative to control; settings: read-out: Activity
HCT-116 = assay: Growth inhibition of human HCT116 cells assessed as cell growth at 10 uM incubated for 48 hrs by sulforhodamine B assay relative to control; settings: HCT-116, 48 h, read-out: Activity
KM12 = assay: Growth inhibition of human KM12 cells assessed as cell growth at 10 uM incubated for 48 hrs by sulforhodamine B assay relative to control; settings: KM12, 48 h, read-out: Activity
SF-295 = assay: Growth inhibition of human SF295 cells assessed as cell growth at 10 uM incubated for 48 hrs by sulforhodamine B assay relative to control; settings: SF-295, 48 h, read-out: Activity
SF-539 = assay: Growth inhibition of human SF539 cells assessed as cell growth at 10 uM incubated for 48 hrs by sulforhodamine B assay relative to control; settings: SF-539, 48 h, read-out: Activity
SNB-19 = assay: Growth inhibition of human SNB19 cells assessed as cell growth at 10 uM incubated for 48 hrs by sulforhodamine B assay relative to control; settings: SNB-19, 48 h, read-out: Activity
SNB-75 = assay: Growth inhibition of human SNB75 cells assessed as cell growth at 10 uM incubated for 48 hrs by sulforhodamine B assay relative to control; settings: SNB-75, 48 h, read-out: Activity
U-251 = assay: Growth inhibition of human U251 cells assessed as cell growth at 10 uM incubated for 48 hrs by sulforhodamine B assay relative to control; settings: U-251, 48 h, read-out: Activity
SK-MEL-28 = assay: Growth inhibition of human SK-MEL-28 cells assessed as cell growth at 10 uM incubated for 48 hrs by sulforhodamine B assay relative to control; settings: SK-MEL-28, 48 h, read-out: Activity
UACC-257 = assay: Growth inhibition of human UACC257 cells assessed as cell growth at 10 uM incubated for 48 hrs by sulforhodamine B assay relative to control; settings: UACC-257, 48 h, read-out: Activity
UACC-62 = assay: Growth inhibition of human UACC62 cells assessed as cell growth at 10 uM incubated for 48 hrs by sulforhodamine B assay relative to control; settings: UACC-62, 48 h, read-out: Activity
IGROV-1 = assay: Growth inhibition of human IGROV1 cells assessed as cell growth at 10 uM incubated for 48 hrs by sulforhodamine B assay relative to control; settings: IGROV-1, 48 h, read-out: Activity
OVCAR-3 = assay: Growth inhibition of human OVCAR3 cells assessed as cell growth at 10 uM incubated for 48 hrs by sulforhodamine B assay relative to control; settings: OVCAR-3, 48 h, read-out: Activity
OVCAR-5 = assay: Growth inhibition of human OVCAR5 cells assessed as cell growth at 10 uM incubated for 48 hrs by sulforhodamine B assay relative to control; settings: OVCAR-5, 48 h, read-out: Activity
NCI/ADR-RES = assay: Growth inhibition of human NCI/ADR-RES cells assessed as cell growth at 10 uM incubated for 48 hrs by sulforhodamine B assay relative to control; settings: read-out: Activity
SK-OV-3 = assay: Growth inhibition of human SKOV3 cells assessed as cell growth at 10 uM incubated for 48 hrs by sulforhodamine B assay relative to control; settings: SK-OV-3, 48 h, read-out: Activity
A498 = assay: Growth inhibition of human A498 cells assessed as cell growth at 10 uM incubated for 48 hrs by sulforhodamine B assay relative to control; settings: A498, 48 h, read-out: Activity
ACHN = assay: Growth inhibition of human ACHN cells assessed as cell growth at 10 uM incubated for 48 hrs by sulforhodamine B assay relative to control; settings: read-out: Activity
PC-3 = assay: Growth inhibition of human PC3 cells assessed as cell growth at 10 uM incubated for 48 hrs by sulforhodamine B assay relative to control; settings: PC-3, 48 h, read-out: Activity
DU-145 = assay: Growth inhibition of human DU145 cells assessed as cell growth at 10 uM incubated for 48 hrs by sulforhodamine B assay relative to control; settings: DU-145, 48 h, read-out: Activity
MDA-MB-231 = assay: Growth inhibition of human MDA-MB-231 cells assessed as cell growth at 10 uM incubated for 48 hrs by sulforhodamine B assay relative to control; settings: MDA-MB-231, 48 h, read-out: Activity
BT-549 = assay: Growth inhibition of human BT549 cells assessed as cell growth at 10 uM incubated for 48 hrs by sulforhodamine B assay relative to control; settings: BT-549, 48 h, read-out: Activity
T47D = assay: Growth inhibition of human T47D cells assessed as cell growth at 10 uM incubated for 48 hrs by sulforhodamine B assay relative to control; settings: read-out: Activity
MDA-MB-468 = assay: Growth inhibition of human MDA-MB-468 cells assessed as cell growth at 10 uM incubated for 48 hrs by sulforhodamine B assay relative to control; settings: MDA-MB-468, 48 h, read-out: Activity

| Compound | growth at 10 µM (CCRF-CEM) [%] | growth at 10 µM (HL-60(TB)) [%] | growth at 10 µM (K562) [%] | growth at 10 µM (MOLT-4) [%] | growth at 10 µM (RPMI-8226) [%] | growth at 10 µM (SR) [%] | growth at 10 µM (A549) [%] | growth at 10 µM (HOP-62) [%] | growth at 10 µM (NCI-H226) [%] | growth at 10 µM (NCI-H322M) [%] | growth at 10 µM (HCT-116) [%] | growth at 10 µM (KM12) [%] | growth at 10 µM (SF-295) [%] | growth at 10 µM (SF-539) [%] | growth at 10 µM (SNB-19) [%] | growth at 10 µM (SNB-75) [%] | growth at 10 µM (U-251) [%] | growth at 10 µM (SK-MEL-28) [%] | growth at 10 µM (UACC-257) [%] | growth at 10 µM (UACC-62) [%] | other results |
| --- | --- | --- | --- | --- | --- | --- | --- | --- | --- | --- | --- | --- | --- | --- | --- | --- | --- | --- | --- | --- | --- |
| O=C(Nc1cccc(-n2cc(-c3ccncc3)c(-c3cc(O)cc(Cl)c3)n2)c1)Nc1ccc(Cl)c(C(F)(F)F)c1 | 9.31 | -26.9 | 5.24 | -18 | 13.8 | -30.6 | 8.81 | 8.99 | 41.2 | 45 | 6.95 | 15.1 | 14.3 | 32.6 | 44.5 | 24.1 | -26.5 | -13.5 | -40 | -1.44 | growth at 10 µM (IGROV-1): 30.6%; growth at 10 µM (OVCAR-3): 1.88%; growth at 10 µM (OVCAR-5): 59.3%; growth at 10 µM (NCI/ADR-RES): 41.5%; growth at 10 µM (SK-OV-3): 63.1%; growth at 10 µM (A498): 21.5%; growth at 10 µM (ACHN): 21.3%; growth at 10 µM (PC-3): 5.34%; growth at 10 µM (DU-145): 18.7%; growth at 10 µM (MDA-MB-231): -47.3%; growth at 10 µM (BT-549): 47.6%; growth at 10 µM (T47D): 25%; growth at 10 µM (MDA-MB-468): 5.22% |
| COc1cc(Cl)cc(-c2nn(-c3cccc(NC(=O)c4ccc(Cl)c(Cl)c4)c3)cc2-c2ccncc2)c1 | 59.2 | 94.1 | 46.4 | 54.9 | 46 | 43.6 | 59.7 | 105 | 66.2 | 84.5 | 44.1 | 62.3 | 36.1 | 74.5 | 71.5 | 50.6 | 64.1 | 87.8 | 84.2 | 75.4 | growth at 10 µM (IGROV-1): 71.6%; growth at 10 µM (OVCAR-3): 53.4%; growth at 10 µM (OVCAR-5): 79.2%; growth at 10 µM (NCI/ADR-RES): 61.4%; growth at 10 µM (SK-OV-3): 80.1%; growth at 10 µM (A498): -0.94%; growth at 10 µM (ACHN): 63.9%; growth at 10 µM (PC-3): 34%; growth at 10 µM (DU-145): 88.5%; growth at 10 µM (MDA-MB-231): 33.9%; growth at 10 µM (BT-549): 85.2%; growth at 10 µM (T47D): 63.2%; growth at 10 µM (MDA-MB-468): 54.6% |
